According to ChEMBL document CHEMBL1201862, “PubChem BioAssay data set” (2004):
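A five-concentration, 48-hour dose response in 96-well plates underlies each endpoint, interpolated linearly between surrounding concentrations. At the GI50, growth is halved.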 Active and inactive are the calls of the source. Cut-off read from the data, not from the text of the source: active = GI50 up to about 1.1 µM and inactive = higher.

Legend:
Assay in all cases: inhibition of tumour cell growth, NCI panel, 48 h
DMS-114 = system: DMS-114
LXFL 529 = system: LXFL 529
HOP-18 = system: HOP-18
XF498 = system: XF498
KM-20L2 = system: KM-20L2
M19-MEL = system: M19-MEL
DLD-1 = system: DLD-1
SNB-78 = system: SNB-78
RXF 631 = system: RXF 631

| SMILES | GI50 (DMS-114) | GI50 (LXFL 529) | GI50 (HOP-18) | GI50 (XF498) | GI50 (KM-20L2) | GI50 (M19-MEL) | GI50 (DLD-1) | GI50 (SNB-78) | GI50 (RXF 631) |
| --- | --- | --- | --- | --- | --- | --- | --- | --- | --- |
| C=CC(=O)NCNC(=O)C=C | > 100 µM (inactive) | > 100 µM (inactive) | > 100 µM (inactive) | > 100 µM (inactive) | > 100 µM (inactive) | > 100 µM (inactive) | > 100 µM (inactive) | – | – |
| Cc1cc(Cl)ccc1NC(=O)C(=O)Cc1ccc([N+](=O)[O-])c([N+](=O)[O-])c1CC(=O)C(=O)Nc1ccc(Cl)cc1C | 60.4 µM (inactive) | > 100 µM (inactive) | > 100 µM (inactive) | > 100 µM (inactive) | > 100 µM (inactive) | > 100 µM (inactive) | – | > 100 µM (inactive) | – |
| NC(=O)c1csc(C2CCC(CO)O2)n1 (stereo unspecified) | > 100 µM (inactive) | > 100 µM (inactive) | > 100 µM (inactive) | – | > 100 µM (inactive) | > 100 µM (inactive) | – | > 100 µM (inactive) | – |
| CC(C)=NNC(=S)NC12CC3CC(CC(C3)C1)C2 | – | > 100 µM (inactive) | – | > 100 µM (inactive) | > 100 µM (inactive) | > 100 µM (inactive) | – | > 100 µM (inactive) | > 100 µM (inactive) |
| Cn1c2c(c3ccccc31)CCN(CCN1CCN(c3ccccc3)CC1)C2=O | > 100 µM (inactive) | > 100 µM (inactive) | 55 µM (inactive) | 22.2 µM (inactive) | > 100 µM (inactive) | – | > 100 µM (inactive) | – | > 100 µM (inactive) |
| O=C(/C=C/c1cccc2ccccc12)c1ccccc1Cl | 12 µM (inactive) | 13.8 µM (inactive) | 17.1 µM (inactive) | 7.59 µM (inactive) | 12.7 µM (inactive) | – | 7.89 µM (inactive) | 19.6 µM (inactive) | 18.1 µM (inactive) |
| CCCCCCCCCCCCC(=O)OC(c1cnco1)c1nc(C(O)CC(O)C(O)C(C)O)co1 (stereo unspecified) | 0.18 µM (active) | 0.238 µM (active) | 3.48 µM (inactive) | 0.627 µM (active) | 1.23 µM (inactive) | 0.78 µM (active) | 0.946 µM (active) | – | – |
| C=C1CC(C/C=C(\C)CC2CC(=C)C(=O)O2)OC1=O (stereo unspecified) | > 100 µM (inactive) | > 100 µM (inactive) | > 100 µM (inactive) | > 100 µM (inactive) | > 100 µM (inactive) | > 100 µM (inactive) | > 100 µM (inactive) | > 100 µM (inactive) | > 100 µM (inactive) |
| CC(C)(C)C[P+](C)(C)c1ccccc1 | > 100 µM (inactive) | > 100 µM (inactive) | > 100 µM (inactive) | – | 83 µM (inactive) | > 100 µM (inactive) | > 100 µM (inactive) | > 100 µM (inactive) | > 100 µM (inactive) |
| COC1=C(C)C(=O)C2=C(C1=O)C1C3CC4=C(C(=O)C(OC)=C(C)C4=O)C(CNC(=O)C(C)O)N3C(C#N)C(C2)N1C (stereo unspecified) | < 0.01 µM (active) | – | < 0.01 µM (active) | < 0.01 µM (active) | < 0.01 µM (active) | < 0.01 µM (active) | < 0.01 µM (active) | < 0.01 µM (active) | – |
| Cc1ccc(-n2c(=S)[nH]c3ccc(Br)cc3c2=O)cc1 | > 100 µM (inactive) | > 100 µM (inactive) | > 100 µM (inactive) | > 100 µM (inactive) | > 100 µM (inactive) | > 100 µM (inactive) | 67.9 µM (inactive) | – | – |
| NS(=O)(=O)c1ccc(NC(=O)CC(=O)Nc2ccc(S(N)(=O)=O)cc2)cc1 | > 100 µM (inactive) | > 100 µM (inactive) | > 100 µM (inactive) | – | > 100 µM (inactive) | > 100 µM (inactive) | > 100 µM (inactive) | > 100 µM (inactive) | – |
| CCN(CC)CC(=O)Nc1ccc2c(c1)C(=O)c1ccc(NC(=O)CN(CC)CC)cc1C2=O | 20.4 µM (inactive) | 22.8 µM (inactive) | – | – | 49.8 µM (inactive) | > 100 µM (inactive) | 26.2 µM (inactive) | 98.9 µM (inactive) | – |
| CCOC(=O)C1=C(C(=O)OCC)C2(c3ccccc3)N(O1)c1ccccc1C2(C)C (stereo unspecified) | – | 36.1 µM (inactive) | 23.3 µM (inactive) | – | 39.1 µM (inactive) | 70.8 µM (inactive) | 50 µM (inactive) | 54.8 µM (inactive) | – |
| COc1cc(CNc2nc3c(N)cc(C(F)(F)F)cc3nc2-c2ccccc2)cc(OC)c1OC | 12.3 µM (inactive) | 25.6 µM (inactive) | > 10 µM (inactive) | 13.7 µM (inactive) | 29.6 µM (inactive) | 35.4 µM (inactive) | 31.8 µM (inactive) | > 10 µM (inactive) | 44.3 µM (inactive) |
| CCN(CC)CCNC(=O)c1ccc(C)c(OCc2ccccc2)c1[N+](=O)[O-] | 26.5 µM (inactive) | 18 µM (inactive) | > 100 µM (inactive) | 20.8 µM (inactive) | 27.2 µM (inactive) | 18.1 µM (inactive) | 34.3 µM (inactive) | 61.9 µM (inactive) | – |
| O=C1NC(=O)C(C(=O)C(=O)Nc2ccc(Br)cc2)C(=O)N1 | > 100 µM (inactive) | > 100 µM (inactive) | > 100 µM (inactive) | > 100 µM (inactive) | > 100 µM (inactive) | > 100 µM (inactive) | > 100 µM (inactive) | > 100 µM (inactive) | > 100 µM (inactive) |
| CC[n+]1c(/C=C/c2ccc(N(CCCl)CCCl)cc2)ccc2cc(Br)ccc21 | 0.662 µM (active) | 0.67 µM (active) | 6.14 µM (inactive) | 0.275 µM (active) | 3.13 µM (inactive) | 1.2 µM (inactive) | 2.71 µM (inactive) | 0.76 µM (active) | 630 µM (inactive) |
| C=CC[P@]1(=O)O[C@H](c2ccccc2)C(C)N1C(C)C (stereo partly specified) | > 100 µM (inactive) | > 100 µM (inactive) | > 100 µM (inactive) | > 100 µM (inactive) | > 100 µM (inactive) | > 100 µM (inactive) | > 100 µM (inactive) | – | > 100 µM (inactive) |
